In patent US12391737B2, “Soluble NPY2 receptor agonists” (Boehringer Ingelheim International GmbH, priority 2020, dated 2025):
*1 amine or outer side, *2 acyl side, *3 side chain or, on linkers, in order; H or OH if unused. Where a SMILES comes first, the peptide text is derived from it. Side-chain parts run from the residue outwards. The star is where a group is joined. C18 diacid = O=C(O)CCCCCCCCCCCCCCCCC(=O)*; γGlu = O=C(O)[C@H](CCC(=O)[*:2])N[*:1]; Isovaleryl = CC(C)CC(=O)*; Ahx = NCCCCCC(=O)O

Assays:
[1] = biological target: T1, Human Neuropeptide Y2 Receptor (Homo sapiens, UniProt P49146); assay: Radioligand binding competition assay (RLB); details: Table 3, 125I-PYY(1-36) competition; read-out: Ki
T1 construct: purchased CHEMICON HTS066M
T1 sequence (P49146 1-381): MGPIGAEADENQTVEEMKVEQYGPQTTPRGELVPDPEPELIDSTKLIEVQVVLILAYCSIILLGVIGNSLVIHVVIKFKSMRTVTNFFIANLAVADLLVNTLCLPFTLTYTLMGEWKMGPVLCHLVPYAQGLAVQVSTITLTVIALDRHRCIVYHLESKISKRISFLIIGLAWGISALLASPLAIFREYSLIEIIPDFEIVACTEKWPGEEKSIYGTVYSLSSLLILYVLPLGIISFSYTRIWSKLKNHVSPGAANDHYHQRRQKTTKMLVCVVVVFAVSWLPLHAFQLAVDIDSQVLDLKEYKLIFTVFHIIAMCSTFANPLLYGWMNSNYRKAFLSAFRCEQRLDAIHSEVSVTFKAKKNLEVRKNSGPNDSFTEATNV
Outline: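 Filtration competition binding on membranes from cells expressing the receptor, 0.5 μg protein/well, in 50 mM HEPES, 5 mM MgCl2, 1 mM CaCl2, pH 7.4, with 0.2% ovalbumin. Incubation ran 2 h at room temperature, followed by GF/C filtration and scintillation counting. IC50 came from nonlinear sigmoidal fits.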

[2] = Solubility determination; details: for Sol6: pH 6; for Sol7: pH 7
Outline: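 First, TFA-salt peptide was added to 0.1 M sodium diphosphate (pH 6.4 or 7.0) to 10 mg/ml and shaken 2 h at room temperature. Next, insoluble material was filtered off. Finally, filtrate and control, each 1 mg/ml in 50% acetonitrile, were compared by reversed-phase chromatography.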

Row | Ki [1] [nM] | Sol6 [2] [mg/mL] | Sol7 [2] [mg/mL] | SMILES
1 | 3.97 | 8.7 | 10.0 | CC(C)CC(=O)N[C@@H](C)C(=O)N1CCC[C@H]1C(=O)N[C@@H](C)C(=O)N[C@@H](CCCCNC(=O)CCCCCNC(=O)CC[C@H](NC(=O)CCCCCCCCCCCCCCCCC(=O)O)C(=O)O)C(=O)N1CCC[C@H]1C(=O)N[C@@H](CCC(=O)O)C(=O)N[C@@H](CCC(=O)O)C(=O)N[C@@H](CC(=O)O)C(=O)N[C@@H](C)C(=O)N[C@@H](CO)C(=O)N1CCC[C@H]1C(=O)N[C@@H](CCC(=O)O)C(=O)N[C@@H](CCC(=O)O)C(=O)N[C@@H](CO)C(=O)N[C@@H](CCC(N)=O)C(=O)N[C@@H](CCCNC(=N)N)C(=O)N[C@@H](Cc1ccc(O)cc1)C(=O)N[C@@H](Cc1ccc(O)cc1)C(=O)N[C@H](C(=O)N[C@@H](CO)C(=O)N[C@@H](CC(C)C)C(=O)N[C@@H](CCCNC(=N)N)C(=O)N[C@@H](Cc1c[nH]cn1)C(=O)N[C@@H](Cc1ccc(O)cc1)C(=O)N[C@@H](Cc1ccc(O)cc1)C(=O)N[C@@H](CC(N)=O)C(=O)N[C@@H](Cc1c[nH]c2ccccc12)C(=O)N[C@@H](CC(C)C)C(=O)N[C@H](C(=O)N[C@@H](CCCNC(=N)N)C(=O)N[C@@H](CCC(N)=O)C(=O)N[C@@H](CCCNC(=N)N)C(=O)N[C@@H](Cc1ccc(O)cc1)C(N)=O)[C@@H](C)O)C(C)C [Compound 149, N{alpha-4}-(3-methylbutanoyl)-N{epsilon-7}-(6-[(4S)-4-carboxy-4-(17-carboxyheptadecanamido)butanamido]hexanoyl)-[4A,6A,7K,9E,17S,18Q,22V,28Y,30W,31L]-hPYY(4-36)]
2 | 0.3 | 0.1 | 9.4 | CC(C)CC(=O)N[C@@H](C)C(=O)N1CCC[C@H]1C(=O)N[C@@H](CCC(=O)O)C(=O)N[C@@H](CCCCNC(=O)CCCCCNC(=O)CC[C@H](NC(=O)CCCCCCCCCCCCCCCCC(=O)O)C(=O)O)C(=O)N1CCC[C@H]1C(=O)N1CCC[C@H]1C(=O)N[C@@H](C)C(=O)N[C@@H](CC(=O)O)C(=O)N[C@@H](C)C(=O)N[C@H](C(=O)N1CCC[C@H]1C(=O)N[C@@H](CCC(=O)O)C(=O)N[C@@H](CCC(=O)O)C(=O)N[C@@H](CC(C)C)C(=O)N[C@@H](CCC(N)=O)C(=O)N[C@@H](CCCNC(=N)N)C(=O)N[C@@H](Cc1ccc(O)cc1)C(=O)N[C@@H](Cc1ccc(O)cc1)C(=O)N[C@H](C(=O)N[C@@H](CO)C(=O)N[C@@H](CC(C)C)C(=O)N[C@@H](CCCNC(=N)N)C(=O)N[C@@H](Cc1c[nH]cn1)C(=O)N[C@@H](Cc1ccc(O)cc1)C(=O)N[C@@H](Cc1ccc(O)cc1)C(=O)N[C@@H](CC(N)=O)C(=O)N[C@@H](Cc1c[nH]c2ccccc12)C(=O)N[C@@H](CC(C)C)C(=O)N[C@H](C(=O)N[C@@H](CCCNC(=N)N)C(=O)N[C@@H](CCC(N)=O)C(=O)N[C@@H](CCCNC(=N)N)C(=O)N[C@@H](Cc1ccc(O)cc1)C(N)=O)[C@@H](C)O)C(C)C)[C@@H](C)O [Compound 30, N{alpha-4}-(3-methylbutanoyl)-N{epsilon-7}-(6-[(4S)-4-carboxy-4-(17-carboxyheptadecanamido)butanamido]hexanoyl)[4A,7K,9P,10A,13T,18Q,22V,28Y,30W,31L]-hPYY(4-36)] (Isovaleryl-APEK([Ahx-γGlu-C18 diacid])PPADATPEELQRYYVSLRHYYNWLTRQRY-NH2)
3 | 3.42 | 10.0 | >10.0 | CC(C)CC(=O)N[C@@H](C)C(=O)N1CCC[C@H]1C(=O)N[C@@H](CCC(=O)O)C(=O)N[C@@H](CCCCNC(=O)CCCCCNC(=O)CC[C@H](NC(=O)CCCCCCCCCCCCCCCCC(=O)O)C(=O)O)C(=O)N1CCC[C@H]1C(=O)N[C@@H](CCC(=O)O)C(=O)N[C@@H](CCC(=O)O)C(=O)N[C@@H](CC(=O)O)C(=O)N[C@@H](CO)C(=O)N[C@H](C(=O)N1CCC[C@H]1C(=O)N[C@@H](CCC(=O)O)C(=O)N[C@@H](CCC(=O)O)C(=O)N[C@@H](CC(C)C)C(=O)N[C@@H](CCC(N)=O)C(=O)N[C@@H](CCCNC(=N)N)C(=O)N[C@@H](Cc1ccc(O)cc1)C(=O)N[C@@H](Cc1ccc(O)cc1)C(=O)N[C@H](C(=O)N[C@@H](CO)C(=O)N[C@@H](CC(C)C)C(=O)N[C@@H](CCCNC(=N)N)C(=O)N[C@@H](Cc1c[nH]cn1)C(=O)N[C@@H](Cc1ccc(O)cc1)C(=O)N[C@@H](Cc1ccc(O)cc1)C(=O)N[C@@H](CC(N)=O)C(=O)N[C@@H](Cc1c[nH]c2ccccc12)C(=O)N[C@@H](CC(C)C)C(=O)N[C@H](C(=O)N[C@@H](CCCNC(=N)N)C(=O)N[C@@H](CCC(N)=O)C(=O)N[C@@H](CCCNC(=N)N)C(=O)N[C@@H](Cc1ccc(O)cc1)C(N)=O)[C@@H](C)O)C(C)C)[C@@H](C)O [Compound 143, N{alpha-4}-(3-methylbutanoyl)-N{epsilon-7}-(6-[(4S)-4-carboxy-4-(17-carboxyheptadecanamido)butanamido]hexanoyl)-[4A,7K,9E,12S,13T,18Q,22V,28Y,30W,31L]-hPYY(4-36)]
4 | 1.44 | 8.8 | 9.3 | CC(C)CC(=O)N[C@@H](C)C(=O)N1CCC[C@H]1C(=O)N[C@@H](C)C(=O)N[C@@H](CCCCNC(=O)CCCCCNC(=O)CC[C@H](NC(=O)CCCCCCCCCCCCCCCCC(=O)O)C(=O)O)C(=O)N1CCC[C@H]1C(=O)N1CCC[C@H]1C(=O)N[C@@H](CCC(=O)O)C(=O)N[C@@H](CC(=O)O)C(=O)N[C@@H](C)C(=O)N[C@@H](CO)C(=O)N1CCC[C@H]1C(=O)N[C@@H](CCC(=O)O)C(=O)N[C@@H](CCC(=O)O)C(=O)N[C@@H](CC(C)C)C(=O)N[C@@H](CCC(N)=O)C(=O)N[C@@H](CCCNC(=N)N)C(=O)N[C@@H](Cc1ccc(O)cc1)C(=O)N[C@@H](Cc1ccc(O)cc1)C(=O)N[C@H](C(=O)N[C@@H](CCC(=O)O)C(=O)N[C@@H](CC(C)C)C(=O)N[C@@H](CCCNC(=N)N)C(=O)N[C@@H](Cc1c[nH]cn1)C(=O)N[C@@H](Cc1ccc(O)cc1)C(=O)N[C@@H](Cc1ccc(O)cc1)C(=O)N[C@@H](CC(N)=O)C(=O)N[C@@H](Cc1c[nH]c2ccccc12)C(=O)N[C@@H](CC(C)C)C(=O)N[C@H](C(=O)N[C@@H](CCCNC(=N)N)C(=O)N[C@@H](CCC(N)=O)C(=O)N[C@@H](CCCNC(=N)N)C(=O)N[C@@H](Cc1ccc(O)cc1)C(N)=O)[C@@H](C)O)C(C)C [Compound 62, N{alpha-4}-(3-methylbutanoyl)-N{epsilon-7}-(6-[(4S)-4-carboxy-4-(17-carboxyheptadecanamido)butanamido]hexanoyl)-[4A,6A,7K,9P,18Q,22V,23E,28Y,30W,31L]-hPYY(4-36)]
5 | 8.17 | 9.6 | 9.7 | CC(C)CC(=O)N[C@@H](C)C(=O)N1CCC[C@H]1C(=O)N[C@@H](CCC(=O)O)C(=O)N[C@@H](CCCCNC(=O)CCCCCNC(=O)CC[C@H](NC(=O)CCCCCCCCCCCCCCCCC(=O)O)C(=O)O)C(=O)N1CCC[C@H]1C(=O)N[C@@H](CCC(=O)O)C(=O)N[C@@H](CCC(=O)O)C(=O)N[C@@H](CC(=O)O)C(=O)N[C@@H](C)C(=O)N[C@H](C(=O)N1CCC[C@H]1C(=O)N[C@@H](CCC(=O)O)C(=O)N[C@@H](CCC(=O)O)C(=O)N[C@@H](CC(C)C)C(=O)N[C@@H](CCC(N)=O)C(=O)N[C@@H](CO)C(=O)N[C@@H](Cc1ccc(O)cc1)C(=O)N[C@@H](Cc1ccc(O)cc1)C(=O)N[C@H](C(=O)N[C@@H](CO)C(=O)N[C@@H](CC(C)C)C(=O)N[C@@H](CCCNC(=N)N)C(=O)N[C@@H](Cc1c[nH]cn1)C(=O)N[C@@H](Cc1ccc(O)cc1)C(=O)N[C@@H](Cc1ccc(O)cc1)C(=O)N[C@@H](CC(N)=O)C(=O)N[C@@H](Cc1c[nH]c2ccccc12)C(=O)N[C@@H](CC(C)C)C(=O)N[C@H](C(=O)N[C@@H](CCCNC(=N)N)C(=O)N[C@@H](CCC(N)=O)C(=O)N[C@@H](CCCNC(=N)N)C(=O)N[C@@H](Cc1ccc(O)cc1)C(N)=O)[C@@H](C)O)C(C)C)[C@@H](C)O [Compound 141, N{alpha-4}-(3-methylbutanoyl)-N{epsilon-7}-(6-[(4S)-4-carboxy-4-(17-carboxyheptadecanamido)butanamido]hexanoyl)-[4A,7K,9E,13T,18Q,19S,22V,28Y,30W,31L]-hPYY(4-36)]
6 | 3.53 | 9.2 | 9.1 | CC(C)CC(=O)N[C@@H](C)C(=O)N1CCC[C@H]1C(=O)N[C@@H](CCC(=O)O)C(=O)N[C@@H](CCCCNC(=O)CCCCCNC(=O)CC[C@H](NC(=O)CCCCCCCCCCCCCCCCC(=O)O)C(=O)O)C(=O)N1CCC[C@H]1C(=O)N[C@@H](CCC(=O)O)C(=O)N[C@@H](CCC(=O)O)C(=O)N[C@@H](CC(=O)O)C(=O)N[C@@H](C)C(=O)N[C@@H](CO)C(=O)N[C@@H](C)C(=O)N[C@@H](CCC(=O)O)C(=O)N[C@@H](CCC(=O)O)C(=O)N[C@@H](CC(C)C)C(=O)N[C@@H](CCC(N)=O)C(=O)N[C@@H](CCC(N)=O)C(=O)N[C@@H](Cc1ccc(O)cc1)C(=O)N[C@@H](Cc1ccc(O)cc1)C(=O)N[C@H](C(=O)N[C@@H](CO)C(=O)N[C@@H](CC(C)C)C(=O)N[C@@H](CCCNC(=N)N)C(=O)N[C@@H](Cc1c[nH]cn1)C(=O)N[C@@H](Cc1ccc(O)cc1)C(=O)N[C@@H](Cc1ccc(O)cc1)C(=O)N[C@@H](CC(N)=O)C(=O)N[C@@H](Cc1c[nH]c2ccccc12)C(=O)N[C@@H](CC(C)C)C(=O)N[C@H](C(=O)N[C@@H](CCCNC(=N)N)C(=O)N[C@@H](CCC(N)=O)C(=O)N[C@@H](CCCNC(=N)N)C(=O)N[C@@H](Cc1ccc(O)cc1)C(N)=O)[C@@H](C)O)C(C)C [Compound 34, N{alpha-4}-(3-methylbutanoyl)-N{epsilon-7}-(6-[(4S)-4-carboxy-4-(17-carboxyheptadecanamido)butanamido]hexanoyl)[4A,7K,9E,14A,18Q,19Q,22V,28Y,30W,31L]-hPYY(4-36)]
